The values below come from patent US9522928B2, “Mannosylated compounds useful for the prevention and the treatment of infectious diseases” (UNIVERSITE DE STRASBOURG, priority 2011, dated 2016).

In general, IC50 refers to the concentration that gives 50% inhibition. A word on the koff: it is the first-order rate constant of dissociation. One may read the kon as the second-order rate constant of association. One may read the Kd as the equilibrium constant for the complex coming apart. A high value points to lower affinity.

The subject of data set [1] is HIV-1 R5. In words: HIV-1 R5 trans-infection of MAGI-CCR5 cells mediated by DCs. In kind it is cell-based. The note with it: for residual level of trans-infection: HIV-1 R5, highest concentrations, relative to medium alone; for inhibition of HIV-1 trans-infection (in words): HIV-1 R5 where stated. The protocol: ManC1, […] (comparative) and compounds of the invention (ManC24, ManC17, TriManC24, TriDiManC24, TriManinsatC24 and ManinsatC24) were serially diluted in water. Human DCs (1×10^5 in 200 μl ) were pre-treated with different concentrations of compounds, or mannan (Sigma) or culture medium alone, in RPMI 1640 medium containing 10% FBS for 45 min at 37° C., prior infection with HIV-1 (100 ng of p24Gag) for 3 h. Excess free virus and molecules were removed by three washes. DCs were then cocultured with MAGI -CCR5 cells (1×10^5) at 37° C. plated in a 48-well plate. After two days, viral infection of MAGI-CCR5 cells was quantitated following beta-galactosidase assays and enumerating blue cells by light microscopy.
The IC50 were determined by serial dilution of each compound. The trans-infection assays were repeated a minimum of three times, and the IC50 determined using KaleidaGraph.
To investigate the ability of the compounds of the invention to inhibit HIV-1 trans infection, we chose to infect human DCs in order to best mimic in vivo conditions. Human DCs were exposed to different compounds (namely, Mannan (control), ManC1 (comparative), ManC11 (comparative), ManC17, ManC24, TriManC24, TriDiManC24, ManinsatC24 and TriManinsatC24) for 45 min at 37° C., before inoculation with HIV-1 (strains R5 and X4) for 3 hours. After extensive washings to remove unbound virions and mannosides, DCs were then co-cultured with MAGI-CCR5 cells. This procedure allows precise quantification of HIV-1 replication in reporter MAGI-CCR5 cells by detection of beta-galactosidase activity. These cells express an integrated copy of the HIV long terminal repeat (LTR) fused to the beta-galactosidase reporter gene, and express the CD4 receptor and the CCR5 and CXCR4 co-receptors, required for entry of HIV-1 R5 and X4 respectively. Upon viral entry leading to viral Tat expression and activation of the LTR, these cells permit quantification of HIV trans-infection after two days.

Data set [2] addresses T1, DC-SIGN CRD (Homo sapiens, UniProt Q9NNX6).
T1 construct: human DC-SIGN (Lys62-Ala404, from R§D Systems); purchased R&D Systems ('R§D Systems' [sic])
T1 sequence (Q9NNX6 62-404): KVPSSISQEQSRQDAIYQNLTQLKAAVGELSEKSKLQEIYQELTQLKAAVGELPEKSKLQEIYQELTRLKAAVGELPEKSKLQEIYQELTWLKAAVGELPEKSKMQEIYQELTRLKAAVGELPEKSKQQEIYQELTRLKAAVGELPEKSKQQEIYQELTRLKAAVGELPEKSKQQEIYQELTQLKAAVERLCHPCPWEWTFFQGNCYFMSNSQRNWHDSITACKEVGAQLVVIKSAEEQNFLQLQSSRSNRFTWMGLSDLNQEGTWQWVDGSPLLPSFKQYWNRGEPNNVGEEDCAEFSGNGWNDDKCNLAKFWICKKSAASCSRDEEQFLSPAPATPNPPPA
Briefly: Surface plasmon resonance (SPR) binding to immobilised DC-SIGN CRD. On the procedure: SPR experiments were performed using a Biacore 3000. […] Biosensor assays were performed with HEPES-buffered saline (10 mM HEPES, 150 mM sodium chloride, pH 7.4) containing 0.005% surfactant P20 and 5 mM CaCl2 as a running buffer. All binding experiments were carried out at 25° C. with a constant flow rate of 20 μl/min. The different compounds dissolved in the running buffer (0.39 to 50 μM) were injected for 3 min, followed by a dissociation phase of 3 min. The sensor chip surface was regenerated after each experiment by injecting 10 μL of EDTA 0.5 M pH 8.0. A simple channel activated by EDC/NHS and deactivated with ethanolamine was used as control. The kinetic parameters were calculated using the BlAeval 4.1 software. Analysis was performed using the simple Langmuir binding model with separate ka/kd (kon/koff). The specific binding profiles were obtained after subtracting the response signal from the control channel and from blank-buffer injection. The fitting to each model was judged by the chi square value and randomness of residue distribution compared to the theoretical model (Langmuir binding 1:1).
The binding affinity of mannoside derivatives for the carbohydrate recognition domain (CRD) of DC-SIGN was assessed by surface plasmon resonance (SPR).
A CM5 sensor chip was functionalized with the DC-SIGN CRD, and increasing concentrations of the various compounds, mannan as a positive control and octaethyleneglycol (OEG) as a negative control, were injected over the chip surface. The association (kon) and dissociation (koff) rate constants and the resulting dissociation equilibrium constant (Kd=koff/kon) for each assessed compound were determined (see Table 1 hereunder).
On the technique in general: In SPR one partner is held on a chip, and binding of the other changes the refractive index at the surface.

Data set [3] relates to HIV-1 (R5 strain). Briefly: HIV-1 cis-infection and replication in DCs (p24Gag ELISA). The note with it: 10 and 100 μM, p24Gag in supernatant. In kind it is cell-based. The protocol: Human monocyte-derived dendritic cells (2×10^5; 300 μL) in RPMI 1640 medium containing 10% FBS were pre-treated with either anti-DC-SIGN antibodies (clone AZND1, Beckman-Coulter; 10 μg/mL) or compounds TriManC24 and TriManC24insat (10 and 100 μM) for 30 min at 37° C., before inoculation with HIV-1 (R5 strain; 100 ng of p24Gag). After 3 h, cells were pelleted and extensively washed to remove excess virus and compounds. On day 2, 4 and 7 after infection, cells were pelleted, an aliquot of the supernatant was removed and kept at −20° C., and half of the supernatant was replaced with fresh medium. Viral replication was monitored by measuring p24Gag levels in the culture supernatant by an enzyme-linked immunosorbent assay (ELISA, Innogenetics). […] As shown in the case of Dengue virus, the compounds of the invention may also interfere with HIV cis-infection. […] Discussion

The test system of data set [4] is Dengue virus 2 (DV2). Briefly: Dengue virus (DV2) cis-infection of human DCs. The data set is classed as cell-based. The note with it: for percentage of infected DCs: 48 hours. On the procedure:
Compounds of the invention (TriManC24, TriManinsatC24) were serially diluted in water. Human DCs (2.5×10^5 in 200 μl) in 48-well plates were pre-treated with different concentrations of compounds or culture medium alone, in RPMI 1640 medium […] for 30 min at 37° C. They were exposed to DV-2 at a multiplicity of infection of 1.0, for 2 h at 37° C. Cells were washed and cultured in complete RPMI medium (condition 1) or in complete medium containing the tested compounds (TriManC24, TriMannsatC24) (condition 2). After 48 h, supernatants were titered and cells were subjected to intracellular detection of viral antigens. DCs were fixed with 4% (v/v) paraformaldehyde and permeabilized with 0.1% (v/v) Triton X-100 for 3 min at room temperature. After washing, they were labeled with mouse anti-DV type 2 monoclonal antibody (3H5.1, Millipore) and stained with APC -conjugated rat anti-mouse IgG1. Fluorescence intensity of the cells was analyzed by flow cytometry (FACSCalibur, Becton Dickinson), using the Cell Quest Pro software.
There are four different dengue serotypes (1-4), and we have used DV type 2 (DV2) to further investigate the ability of the compounds of the invention (TriManC24 and TriManinsatC24) to inhibit the infection of human DCs. These cells were pre-treated with different concentrations of compounds or culture medium alone, for 30 min at 37° C. They were then exposed to DV2 for 2 hours at 37° C. Cells were washed to remove excess virions and compounds, and further cultured either in the absence (condition 1) or in the presence (condition 2) of the tested compounds. After 48 hours, cells were subjected to intracellular detection of viral antigens, and supernatants were titrated (not shown). […] FIG. 3A and FIG. 3B show the percentage of infected DCs when incubated with distinct concentrations of TriManinsatC24 in condition 1 and in condition 2, respectively. The histograms clearly show the protecting effects of TriManinsatC24, in particular in condition 2 wherein TriManinsatC24 at 10, 50 and 100 μM enabled the percentage of infected DCs to be reduced down to 40%, 20% and 2% respectively.

Data set [5] can be described thus: Hydrodynamic diameter of micelles (Zetasizer Nano ZS). The data set is classed as physicochemical. The note with it: in water at 0.5 mg/ml. The protocol:
DiManinsatC24 was prepared according a procedure similar to that used for the preparation of TriDiManC24 except that: • pentacosanoic acid was replaced by 10,12-pentacosadiynoic acid, and • before the coupling with 10,12-pentacosadiynoic acid, the benzyl groups of compound 33 were replaced by acetyl group so as to provide compound 108 (as illustrated in FIG. 3E). ^1H NMR δ(ppm) (MeOD, 400 MHz) 4.87 (s, 3H), 4.73 (s, 3H), 3.64-3.50 (m, 14H), 3.46-3.20 (m, 76H), 2.97-2.93 (m, 6H), 2.33 (t, 6H, J=6.8 Hz), 2.09-1.96 (m, 6H), 1.08-1.05 (m, 32H), 0.66 (t, 3H, J=6.8 Hz). ^13C NMR δ (ppm) (MeOD, 100 MHz) 173.7, 168.8, 104.2, 101.2, 80.6, 80.4, 75.1, 74.7, 72.5, 72.2, 72.1, 71.9, 71.8, 71.7, 71.6, 71.4, 69.4, 69.1, 68.9, 68.7, 68.6, 68.0, 63.2, 63.1, 42.2, 37.0, 34.8, 33.7, 33.1, 30.8, 30.7, 30.6, 30.5, 30.4, 30.2, 29.5, 28.1, 27.0, 26.0, 23.7, 19.7, 14.4. IR (neat film, cm^−1): 3353, 2924, 1716, 1636, 1350, 1182, 1095, 1035, 1009, 837, 669. • Determination of critical micelle concentrations (CMCs) and size of particles. The hydrodynamic diameters of micelles of glycolipids were measured in water using a Zetasizer Nano ZS system (Malvern Instruments). The CMCs were measured using pyrene as an extrinsic fluorescent probe and were carried out as described (Perino et al., 2011). Briefly, a range of glycolipid samples were dissolved in water (1 ml), with concentrations ranging from 1.0 to 0.001 mg/ml. A stock solution of pyrene (1 mM) was prepared in dimethyl sulfoxyde and was added to each sample. Fluorescent emission of pyrene was measured at 25° C. using a Fluorolog spectrofluorometer (Jobin Yvon, Horiba). The intensities of fluorescence emission were determined at 374 nm (I374) and at 383 nm (I383), with an excitation at a 339 nm wavelength. The ratios I374/I383 were calculated and plotted against the glycolipid concentration. The CMC value was determined at the intersection of the two straight lines.

[6] abbreviates: Human immunodeficiency virus 1, MAGI-CCR5, read-out: IC50 of HIV-1 trans-infection.

“Also recorded” adds a separate entry of the source. Like-named read-outs stand apart in the source and are kept apart here.

As to `CCCCCCCCCCCCC#CC#CCCCCCCCCC(=O)NCCOCCOCCOCC(=O)NCCOCCOCCOCCO[C@H]1O[C@H](CO)[C@@H](O)[C@H](O)[C@@H]1O` [ManinsatC24], the “residual level of trans-infection” value in data set [1] was found to be 15%. For the same compound, in data set [1] (Human immunodeficiency virus 1, MAGI-CCR5, HIV-1 R5, read-out: IC50 of HIV-1 trans-infection), the IC50 stood at 61 µM. In addition, in data set [2] (25° C., Langmuir 1:1), the koff came to 0.00138 s⁻¹ and the kon amounted to 538 M⁻¹ s⁻¹. For the same compound, the Kd in data set [2] (Kd=koff/kon) amounted to 2.57 µM.

Take mannan [reference compound]: the “binding to DC-SIGN CRD (in words)” value in data set [2] was “bound efficiently”.

As for `CCCCCCCCCCCCC#CC#CCCCCCCCCC(=O)NC(COCCC(=O)NCCOCCOCCOCCOC1OC(CO)C(O)C(O)C1O)(COCCC(=O)NCCOCCOCCOCCOC1OC(CO)C(O)C(O)C1O)COCCC(=O)NCCOCCOCCOCCOC1OC(CO)C(O)C(O)C1O` (centres unmarked) [TriManinsatC24], the figures for the “inhibition of HIV-1 cis-infection / replication in DCs (in words)” value in data set [3] and in data set [3] (listed as TriManC24insat) were “inhibit” and “decreases the amount of HIV R5 replication”, respectively. Further, the “inhibition of Dengue virus infection of DCs (in words)” value in data set [4] is reported as “able to inhibit the direct infection of DCs by Dengue virus”. For the same compound, the “percentage of infected DCs” value in data set [4] (condition 2, 10 μM) turned out to be 40%; in data set [4] (condition 2, 50 μM), 20%; in data set [4] (condition 2, 100 μM) it was 2%. In data set [1], the “residual level of trans-infection” value was 2%. Also, the “inhibition of HIV-1 trans-infection (in words)” value in data set [1] is on record as “almost fully blocked HIV trans-infection at the highest concentrations”. Further, in data set [2] (Kd=koff/kon), the affinity, expressed as Kd, was 0.47 µM.

As for `CCCCCCCCCCCCCCCCCCCCCCCCC(=O)NCCOCCOCCOCC(=O)NCCOCCOCCOCCOC1OC(CO)C(O)C(O)C1O` (centres unmarked) [ManC24], in data set [1], the “inhibition of HIV-1 trans-infection (in words)” value is listed as “reduced trans-infection in a dose -dependent manner; also recorded: able to inhibit trans-infection to a similar extent; also recorded: inhibited in a dose -dependent manner”. Moreover, the IC50 in data set [1] (setting [6]) is 120 µM. In data set [2] (25° C., Langmuir 1:1), this compound registered a koff of 9e-05 s⁻¹ and a kon of 273 M⁻¹ s⁻¹. In data set [2] (Kd=koff/kon), the “KD (μM)” value is “sub-micromolar range”. Moreover, the “hydrodynamic diameter of micelles” value in data set [5] is 17 nm.

`CCCCCCCCCCCCCCCCCC(=O)NCCOCCOCCOCC(=O)NCCOCCOCCOCCOC1OC(CO)C(O)C(O)C1O` (centres unmarked) [ManC17]: the “inhibition of HIV-1 trans-infection (in words)” value in data set [1] is “reduced trans-infection in a dose -dependent manner; also recorded: able to inhibit trans-infection to a similar extent; also recorded: inhibited in a dose -dependent manner”. In addition, in data set [1] (setting [6]), the IC50 was 120 µM. Also, the “binding to DC-SIGN CRD (in words)” value in data set [2] was “bound with a low affinity”. Also, the “Kon (M^−1 · s^−1)” value in data set [2] (25° C., Langmuir 1:1) is “Low binding”. For the same compound, the “hydrodynamic diameter of micelles” value in data set [5] worked out at 17 nm.
